According to ChEMBL document CHEMBL1201862, “PubChem BioAssay data set” (2004):
Values joined by “and” are separate entries in the source; they are usually repeats but may differ in a detail not shown here. Equal values may be shown once. Active and inactive are the calls of the source.

How the values were obtained:
[1] = system: Vero; experiment: cells; assay type: functional; conditions: Chlorocebus sabaeus
[2] = target: T1, Streptokinase A (Streptococcus pyogenes serotype M1, UniProt P10520); experiment: S. pyogenes streptokinase expression inhibitors, potency, dose response, plasminogen activation absorbance, OD405 (AID 1914); assay type: functional, Streptococcus pyogenes M1 GAS;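 note: secreted streptokinase activity via plasminogen activation per viability signal from cell pellet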
T1 sequence (P10520 whole entry): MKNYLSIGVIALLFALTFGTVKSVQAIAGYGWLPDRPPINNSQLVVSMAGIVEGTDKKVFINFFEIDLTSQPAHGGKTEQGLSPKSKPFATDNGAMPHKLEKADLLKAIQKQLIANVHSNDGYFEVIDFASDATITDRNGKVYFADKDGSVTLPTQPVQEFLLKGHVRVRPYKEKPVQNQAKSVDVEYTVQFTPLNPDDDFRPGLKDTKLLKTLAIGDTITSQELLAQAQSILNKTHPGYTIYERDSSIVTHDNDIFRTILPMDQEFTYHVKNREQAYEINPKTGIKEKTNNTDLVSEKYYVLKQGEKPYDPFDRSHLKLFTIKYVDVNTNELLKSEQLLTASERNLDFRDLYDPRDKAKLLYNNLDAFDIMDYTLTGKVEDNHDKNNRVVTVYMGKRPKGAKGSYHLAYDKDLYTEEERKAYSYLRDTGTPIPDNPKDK

[3] = target: DNA damage-inducible transcript 3 protein (Mus musculus, UniProt P35639); assay type: functional, Cricetulus griseus
[4] = system: Streptococcus; experiment: Group A Streptococcus viability loss, dose response, counter-screen for streptokinase expression inhibitor project, luminescence, BacTiterGlo (AID 1915); assay type: functional, organism-based;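 note: potency for reduction of bacterial viability or growth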
[5] = system: Streptococcus sp. 'group A'; experiment: growth inhibition of control SK(-) GAS strain, dose response, counter-screen for streptokinase expression inhibitor project, luminescence, kanamycin, BacTiterGlo, confirmation (AID 1900); assay type: functional, organism-based
[6] = target: T2, Runt-related transcription factor 1/Core-binding factor subunit beta (Homo sapiens, UniProt Q01196+Q13951); experiment: inhibitors of RUNX1 Runt–CBFb-SMMHC binding, primary screen, biochemical, FRET, Cerulean-Runt, Venus-CBFb-SMMHC, uHTS (AID 1434); assay type: protein assay;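 note: partner is the CBFb-SMMHC leukemia fusion protein rather than wild-type CBFb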
[7] = target: T2, Runt-related transcription factor 1/Core-binding factor subunit beta; experiment: inhibitors of RUNX1 Runt–CBFb-SMMHC binding, biochemical, TR-FRET (AID 1438); assay type: protein assay
[8] = target: Troponin, cardiac muscle (Homo sapiens, UniProt P19429+P45379+P63316); experiment: Fluorescence-based biochemical high throughput dose response assay for activators of the calcium sensitivity of cardiac Regulated Thin Filaments (RTF). [Related pubchem assays (depositor defined):AID493008, AID493018, AID504382, AID504383]; assay type: protein-complex assay
[9] = cytotoxicity in HEK-293T cells, dose response, cytotoxicity control for BCR NF-kB inhibitor project, luminescence, B-cell screen hits (AID 489021); assay type: functional, cell-based;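 note: HEK-293T cells carrying an NF-kB luciferase reporter; cells exposed to compound for about 14 hours before viability readout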
[10] = target: RNA-editing ligase 1, mitochondrial (Trypanosoma brucei brucei, UniProt P86926); experiment: TbREL1 ligase inhibitors, dose response, biochemical, fluorescence, Trypanosoma brucei (AID 1117295); assay type: functional
[11] = HEp-2 cell cytotoxicity, dose response, cytotoxicity control for RSV inhibitor project, HTS (AID 2410); assay type: functional; conditions: human respiratory syncytial virus
[12] = target: T3, Apoptotic protease-activating factor 1 (Homo sapiens, UniProt O14727); assay type: functional
T3 sequence (O14727 whole entry): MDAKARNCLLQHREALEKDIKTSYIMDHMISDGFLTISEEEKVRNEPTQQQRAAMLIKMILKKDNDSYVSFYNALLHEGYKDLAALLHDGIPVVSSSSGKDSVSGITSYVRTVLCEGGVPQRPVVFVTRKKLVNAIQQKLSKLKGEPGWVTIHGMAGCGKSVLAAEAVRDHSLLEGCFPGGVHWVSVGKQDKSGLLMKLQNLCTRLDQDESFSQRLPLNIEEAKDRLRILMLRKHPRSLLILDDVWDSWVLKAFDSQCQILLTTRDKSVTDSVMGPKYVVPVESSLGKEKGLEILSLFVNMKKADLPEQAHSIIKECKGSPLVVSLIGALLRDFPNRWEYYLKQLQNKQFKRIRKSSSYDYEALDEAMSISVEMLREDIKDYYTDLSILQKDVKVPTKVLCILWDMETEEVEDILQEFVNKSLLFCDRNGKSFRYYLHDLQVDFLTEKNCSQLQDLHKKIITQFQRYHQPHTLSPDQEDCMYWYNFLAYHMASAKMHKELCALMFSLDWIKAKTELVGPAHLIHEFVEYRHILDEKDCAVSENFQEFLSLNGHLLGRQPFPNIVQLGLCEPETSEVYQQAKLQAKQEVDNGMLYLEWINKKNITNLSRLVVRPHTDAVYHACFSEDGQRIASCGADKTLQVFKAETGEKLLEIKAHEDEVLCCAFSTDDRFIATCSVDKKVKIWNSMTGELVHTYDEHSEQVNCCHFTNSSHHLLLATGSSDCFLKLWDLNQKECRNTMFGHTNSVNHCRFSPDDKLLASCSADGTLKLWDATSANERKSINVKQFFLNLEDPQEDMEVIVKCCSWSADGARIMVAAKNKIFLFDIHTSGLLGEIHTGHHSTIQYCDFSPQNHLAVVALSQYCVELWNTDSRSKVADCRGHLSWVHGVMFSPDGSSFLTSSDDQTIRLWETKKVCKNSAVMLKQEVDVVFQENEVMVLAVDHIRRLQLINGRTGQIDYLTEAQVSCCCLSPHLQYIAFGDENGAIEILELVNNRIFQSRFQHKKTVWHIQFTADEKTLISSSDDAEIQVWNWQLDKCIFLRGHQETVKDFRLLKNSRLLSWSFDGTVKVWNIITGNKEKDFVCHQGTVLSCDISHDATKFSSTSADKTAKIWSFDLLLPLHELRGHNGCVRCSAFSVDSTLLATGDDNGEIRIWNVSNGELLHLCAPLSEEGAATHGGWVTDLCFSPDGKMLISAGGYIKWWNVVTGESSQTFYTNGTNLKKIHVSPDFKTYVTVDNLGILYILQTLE

[13] = target: Lysosomal acid glucosylceramidase (Homo sapiens, UniProt P04062); experiment: Dose response cell-based high throughput screening assay to identify enhancers of beta-glucosidase activity. [Related pubchem assays: 784 ]; assay type: functional
[14] = target: T4, Replicative DNA helicase DnaB (Mycobacterium tuberculosis, UniProt P9WMR3); experiment: DnaB intein splicing inhibitors, dose response, biochemical, cell-free fluorescence (AID 449749); assay type: functional
T4 sequence (P9WMR3 whole entry): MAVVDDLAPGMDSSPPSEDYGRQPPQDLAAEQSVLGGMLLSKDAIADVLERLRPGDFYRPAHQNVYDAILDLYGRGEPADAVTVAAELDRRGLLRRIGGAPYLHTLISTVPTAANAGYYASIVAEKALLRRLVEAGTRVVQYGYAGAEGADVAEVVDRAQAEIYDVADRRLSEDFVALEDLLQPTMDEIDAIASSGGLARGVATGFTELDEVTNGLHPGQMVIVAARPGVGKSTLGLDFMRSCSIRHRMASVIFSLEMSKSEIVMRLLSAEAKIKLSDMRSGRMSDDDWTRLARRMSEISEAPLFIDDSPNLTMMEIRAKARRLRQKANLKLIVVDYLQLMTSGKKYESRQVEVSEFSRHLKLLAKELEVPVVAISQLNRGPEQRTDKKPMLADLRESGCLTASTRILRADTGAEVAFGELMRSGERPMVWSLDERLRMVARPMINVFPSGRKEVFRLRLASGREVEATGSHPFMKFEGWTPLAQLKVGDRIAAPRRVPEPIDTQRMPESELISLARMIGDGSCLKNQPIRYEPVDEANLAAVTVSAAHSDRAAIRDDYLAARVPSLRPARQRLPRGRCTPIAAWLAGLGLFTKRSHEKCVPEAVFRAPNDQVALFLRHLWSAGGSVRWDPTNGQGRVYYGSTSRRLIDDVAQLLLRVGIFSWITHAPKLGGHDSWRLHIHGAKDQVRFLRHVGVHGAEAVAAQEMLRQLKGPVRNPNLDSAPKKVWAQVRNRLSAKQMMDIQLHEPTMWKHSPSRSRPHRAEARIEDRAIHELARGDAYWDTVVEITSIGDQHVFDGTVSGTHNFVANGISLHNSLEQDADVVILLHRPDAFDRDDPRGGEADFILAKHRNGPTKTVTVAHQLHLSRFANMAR

[15] = target: X-box-binding protein 1 (Homo sapiens, UniProt P17861); assay type: functional, Cricetulus griseus;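 note: confirmatory dose-response counter-screen serving a CHOP assay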
[16] = target: T5, Protein RecA (Mycobacterium tuberculosis, UniProt P9WHJ3); experiment: Fluorescence Cell-Free Homogeneous Dose Retest to Identify Inhibitors of RecA-Intein Splicing Activity. [Related pubchem assays (depositor defined):AID2097, AID2223, AID489010, AID492950]; assay type: functional
T5 sequence (P9WHJ3 whole entry): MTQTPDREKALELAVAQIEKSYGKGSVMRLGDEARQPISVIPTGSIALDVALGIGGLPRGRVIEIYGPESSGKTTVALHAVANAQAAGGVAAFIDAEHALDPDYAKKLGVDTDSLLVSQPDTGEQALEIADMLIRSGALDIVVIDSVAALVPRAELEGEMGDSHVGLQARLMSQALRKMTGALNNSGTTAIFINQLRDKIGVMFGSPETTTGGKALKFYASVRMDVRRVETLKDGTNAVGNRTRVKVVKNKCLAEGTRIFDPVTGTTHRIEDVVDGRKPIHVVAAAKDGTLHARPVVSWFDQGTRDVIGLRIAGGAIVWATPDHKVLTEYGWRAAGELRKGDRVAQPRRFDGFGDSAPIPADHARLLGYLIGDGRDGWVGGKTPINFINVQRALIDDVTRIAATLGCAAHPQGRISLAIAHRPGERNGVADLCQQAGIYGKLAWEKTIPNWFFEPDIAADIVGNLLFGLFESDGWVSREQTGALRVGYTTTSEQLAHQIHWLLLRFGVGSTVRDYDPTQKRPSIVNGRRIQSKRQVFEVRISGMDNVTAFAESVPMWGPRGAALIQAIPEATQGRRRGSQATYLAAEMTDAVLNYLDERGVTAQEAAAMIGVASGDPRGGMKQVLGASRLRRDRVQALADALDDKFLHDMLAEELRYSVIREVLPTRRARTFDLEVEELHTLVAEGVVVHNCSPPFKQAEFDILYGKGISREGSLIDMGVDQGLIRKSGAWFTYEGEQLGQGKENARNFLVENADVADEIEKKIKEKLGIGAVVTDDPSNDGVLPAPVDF

[17] = cytotoxicity in KRAS-transformed pancreatic duct cells, primary screen, cell-based, fluorescence, HTS (AID 431); assay type: functional; conditions: Homo sapiens;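 note: cell line used: HPDE-C7K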
[18] = target: T6, Cytochrome P450 1A2 (Homo sapiens, UniProt P05177);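 note: PubChem cytochrome P450 panel assay, CYP1A2 panel member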
T6 sequence (P05177 whole entry): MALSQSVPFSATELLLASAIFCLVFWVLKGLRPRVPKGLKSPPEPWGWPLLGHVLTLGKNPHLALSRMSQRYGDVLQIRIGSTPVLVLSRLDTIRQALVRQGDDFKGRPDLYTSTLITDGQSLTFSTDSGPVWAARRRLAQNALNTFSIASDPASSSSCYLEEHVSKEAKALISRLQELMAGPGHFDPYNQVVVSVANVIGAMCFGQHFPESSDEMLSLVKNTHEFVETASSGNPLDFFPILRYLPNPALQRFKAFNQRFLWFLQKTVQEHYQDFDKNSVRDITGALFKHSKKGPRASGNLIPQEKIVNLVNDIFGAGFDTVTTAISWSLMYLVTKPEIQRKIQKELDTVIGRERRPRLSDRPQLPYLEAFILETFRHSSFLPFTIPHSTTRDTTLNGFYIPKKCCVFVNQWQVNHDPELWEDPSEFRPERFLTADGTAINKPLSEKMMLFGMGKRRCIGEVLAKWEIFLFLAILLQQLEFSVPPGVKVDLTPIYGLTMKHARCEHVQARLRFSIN

[19] = growth suppression of beta-catenin-knockout colon cells, dose response, cell-based, HCT116, human colon tumor (AID 1045); assay type: functional;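 note: HCT116 colon tumor cells with beta catenin knocked out; cells exposed to compound for 60 hours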
[20] = target: Cytochrome P450 3A4 (Homo sapiens, UniProt P08684);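 note: CYP3A4 tested as one member of a cytochrome P450 panel screen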
[21] = Luminescence Cell-Based Dose Retest to Confirm Inhibitors of Cancer Stem Cells. [Related pubchem assays (depositor defined):AID2717, AID2721]; assay type: functional; conditions: Homo sapiens
[22] = cytotoxicity in HPDE-C7 cells, cell-based, fluorescence, HTS (AID 430); assay type: functional; conditions: Homo sapiens
[23] = growth suppression of PTEN-null colon cells, dose response, cell-based, HCT116 PTEN knockout (AID 1047); assay type: functional;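 note: HCT116 colon tumor cells with PTEN knocked out; cells exposed to compound for 60 hours before readout; potency for loss of cell viability measured by luminescence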

O=C(CN1c2ccccc2Sc2ccccc21)NNC(=O)Nc1cccc(Cl)c1
CC50 [1]: 19 µM (active)
EC50 [2]: > 150 µM (not active)
Absolute IC50 (CHOP) [3]: 10 µM
EC50 [4]: 18.5 µM (active)
EC50 [5]: 4.41 µM (active)

Cc1cc(=O)oc2c3c4c(cc12)OCCN4CCC3
IC50 [6]: < 0.195 µM (inactive)
IC50 [7]: > 100 µM (inactive)

Fc1ccc(-c2n[nH]cc2CN(CC2CCC2)CC2CCCO2)c(F)c1 (configuration not stated)
EC50 [8]: > 71.5 µM (inactive)

C(=N\Nc1nc(Nc2ccccc2)nc(Nc2ccccc2)n1)/c1cccnc1
IC50 [9]: 41.3 µM (inactive)

CCC(C)NC(=O)c1c(N)n(CC2CCCO2)c2nc3ccccc3nc12 (configuration not stated)
IC50 [10]: 27.7 µM (inactive)
CC50 [11]: 20.3 µM (active)
Absolute IC50 (CHOP) [3]: 10 µM
IC50 [12]: 18.8 µM (active)
EC50 [13]: > 50 µM (not active)

CC1(C)CC(C(CCN(Cc2ccccc2)C(=O)c2ccco2)c2ccc(F)cc2)CCO1 (configuration not stated)
AC50 [14]: 6.07 µM (active)
Absolute IC50 (XBP1) [15]: 10 µM
EC50 [16]: 20.9 µM (active)

O=C(Nc1ccc(Cl)cn1)C1COc2ccccc2O1 (configuration not stated)
EC50 [8]: > 71.5 µM (inactive)

O=c1[nH]c2ccccc2n1C1CCN(CCCC(c2ccc(F)cc2)c2ccc(F)cc2)CC1 [PIMOZIDE]
EC50 [17]: 18.9 µM (active)
AC50 [18]: 31.6 µM (inconclusive) and 15.8 µM (inconclusive)
EC50 [19]: 7.54 µM (active)
AC50 [20]: inconclusive
Absolute IC50 (XBP1) [15]: < 10 µM
AC50 [21]: 3.79 µM (active)
EC50 [22]: 13.6 µM (active)
EC50 [23]: 6.38 µM (active)

CCOc1ccc(-c2nnc(SCC(=O)NC3CC3)o2)cc1
IC50 [9]: > 80 µM (inactive)
